Series [1] is described as follows: Reinvestigation of Form IX sample by PXRD and FT-Raman. Type of series: physicochemical. Particulars: PXRD and FT-Raman spectroscopy. As for the experimental part:
198 mg of Compound 1 Form I-A was dissolved in 0.2 mL acetone and 2.0 mL of cyclohexane. The solution was stirred at 5° C. for 4 hours than evaporated at 5° C. for 2 hours to obtain a precipitate. The precipitate was collected by filtration and dried under vacuum for 1 hour to give Form IX (FIGS. 29 and 30). […] The sample was likely incompletely dried but might also correspond to a cyclohexane solvate.

Series [2] in a line: Dynamic vapor sorption (DVS) hygroscopicity. Type of series: physicochemical. The note with it: for water content gained: from 0% relative humidity to 85% r.h. An excerpt: Projekt Messtechnik SPS11-100n multi-sample water vapor sorption analyzer or Surface Measurement Systems Ltd. DVS-1 water vapour sorption analyzer. The sample was allowed to equilibrate at 50% r.h. before starting a pre-defined humidity program.
Program: 50% r.h.→0% r.h.→95% r.h.→50% r.h., Δr.h.=5%/h
Hygroscopicity was classified as follows: • deliquescent sufficient water is absorbed to form a liquid • very hygroscopic increase of the mass is ≧15% • hygroscopic increase of the mass is less than 15% and greater than or equal to 2% • slightly hygroscopic increase of the mass is less than 2% and greater than or equal to 0.2% • not hygroscopic increase of the mass is less than 0.2% Thermogravimetry Coupled to Fourier-Transform Infrared Spectroscopy (TG-FTIR): […]

Series [3] can be described thus: Mechanical stability (IR press and grinding, PXRD). Type of series: physicochemical. The note with it: pressed with 10 metric tons for 30 min; vigorously ground. The protocol:
Two types of experiments elucidated the mechanical stability of Compound 1 Form II. First, about 200 mg of Form II was pressed in an IR press with a force of 10 metric tons (13 mm diameter of pellet) for 30 min. The resulting pellets were analyzed by PXRD. Second, about 150 mg of Form II was vigorously ground and analyzed by PXRD.
Two types of experiments elucidated the mechanical stability of Compound 1 Form III. First, about 200 mg of […] was pressed in an IR press with a force of 10 metric tons (13 mm diameter of pellet) for 30 min. The resulting pellets were analyzed by PXRD. Second, about 150 mg of Form III was vigorously ground and analyzed by PXRD.

Series [4] can be described thus: Storage under CO2 atmosphere and 75-76% relative humidity. Type of series: physicochemical. Particulars: open container, 1 month; for hydrate (Form IV) or CO2 adduct formation: 1 bar CO2, 75-76% relative humidity; for Form after storage: 1 bar CO2, over saturated NaCl solution (75-76% relative humidity).
The nature of series [5]: Solvent-based stability tests in water/methanol. Type of series: physicochemical. The note with it: for Form: 6:4 MeOH:water, at least three days; for Relative stability of polymorphic forms: all three temperatures (25, 45, 55° C.). An excerpt:
A mixture of Compound 1 Forms II, III, IV, and V was slurried in various compositions of methanol/water, or in water, for at least three days at different temperatures.

Series [6] is described as follows: Solid state stability at 60-65° C. The note with it: closed cap vial. Type of series: physicochemical. As for the experimental part:
Compound 1 Form II, Compound 1 Form III, and compound 1 Form IV were stored at 60-65° C. in a closed cap vial for various lengths of time. Compound 1 Forms II and III remained unchanged under these conditions. Compound 1 Form IV is converted to a mixture of Forms II and III after 10 days at 60-65C.

The nature of series [7]: Solvent-based stability tests in n-heptane/ethanol. The class given is physicochemical. The note with it: 95:5 heptane:ethanol. The protocol: Compound 1 Form II, Compound I Form III, or a mixture of Compound 1 Forms II and III were slurried in 95:5 heptane:ethanol (anhydrous). After one day at various temperatures, a portion of the slurry was filtered and analyzed by XRPD. A solution mediated transition occurs at 45-47° C. in 95:5 heptane:ethanol. Below 45° C.

Series [8] is described as follows: Solvent-based stability tests in n-heptane/toluene. Type of series: physicochemical. Particulars: 3:2 (v/v) n-heptane:toluene, 6 days. As for the experimental part:
The thermodynamic stability of Form II and Form III as a function of temperature was investigated by suspension equilibration experiments.
54.6 mg of Compound 1 Form III and 61.2 mg of Compound 1 Form II were suspended in […] of 3:2 (v/v) n-heptane:toluene and sonicated. […] In this experiment the starting material likely took up ambient humidity to give Form IV.
18.5 mg of Compound 1 Form III and 28.0 mg of Compound 1 Form II were suspended in 0.4 mL of 3:2 (v/v) n-heptane:toluene and sonicated. After stirring at 60° C. for 6 days the solid was collected by filtration to give Form II.
35.4 mg of Compound 1 Form III and 46.1 mg of Compound 1 Form II were suspended in 0.4 mL of 3:2 (v/v) n-heptane:toluene and sonicated.
40.5 mg of Compound 1 Form III and 45.7 mg of Compound 1 Form II were suspended in 0.4 mL of 3:2 (v/v) n-heptane:toluene and sonicated. After stirring at 55° C. for 6 days the solid was collected by filtration to give Form II.
The solvent-based experiments are in principle thermodynamic stability tests between Compound 1 Forms II and III because mixtures of both forms were suspended. Below 45° C. […] Above 55° C. […] At 50° C. a mixture of both Form II and Form III was obtained in 3:2 (v/v) n-heptane:toluene. This is not unexpected. Close to the transition temperature, the thermodynamic driving force would be expected to be very small leading to slow transition rates. Possibly the kinetics of transformation were too slow for the transformation to occur on the timescale of the experiment. According to these suspension equilibration experiments, Form II and Form III are enantiotropic polymorphs. The thermodynamic transition temperature between Form II and Form III is between 45° C. and 55° C.

A short description of series [9]: Suspension equilibration of Form I-A in non-solvate forming solvents. Type of series: physicochemical. Particulars: at 5° C. and room temperature. The protocol: 109 mg of Compound 1 Form I-A was suspended in 2.0 mL of cyclohexane and sonicated. After stirring for 14 days at room temperature, the solid was collected by filtration and dried under vacuum for 30 minutes to give Form III.
105 mg of Compound 1 Form I-A was suspended in 0.7 mL of 3:2 (v/v) n-heptane/toluene and sonicated. After stirring for 16 days at 5° C., the solid was collected by filtration and dried under vacuum for 30 minutes to give Form III.
102 mg of Compound 1 Form I-A was suspended in 0.7 mL of 10:1 (v/v) n-heptane/toluene and sonicated. After stirring for 16 days at 5° C., the solid was collected by filtration and dried under vacuum for 30 minutes to give Form III.
115 mg of Compound 1 Form I-A was suspended in 0.7 mL of 1:10 (v/v) n-heptane/toluene and sonicated. After stirring for 16 days at 5° C., the solid was collected by filtration and dried under vacuum for 30 minutes to give Form III.

In series [10] the target is C. fumiferana EcR (CfEcR-DEF) (Choristoneura fumiferana, UniProt O77240). Description: Cellular gene-switch assay, WT-Cf EcR, luciferase reporter. The class given is cell-based. Particulars: NIH3T3 cells. The protocol:
(§1) Cellular gene-switch assays were performed by transfecting the following constructs in mouse embryonic fibroblast cells (NIH3T3). The wild-type D-, E-, and F-domains from a) C. fumiferana EcR (CfEcR-DEF), and b) C. fumiferana EcR with a E274V/V390I/Y410E mutation (VY-CfEcR-DEF), were fused to a GAL4-DBD and placed under the control of the CMV promoter in a pBIND vector (Promega Corporation, Madison, Wis., USA). A chimeric RXR from Homo sapiens RXRb and Locusta migratoria RXR fused to VP16-AD and under the control of an SV40e promoter has previously described. (See, Kothapalli et al., Dev. Genet. 17:319-330 (1995); Palli, et al., FEBS J. 272:5979-5990 (2005); and U.S. Pat. No. 7,935,510 B2). The inducible luciferase reporter plasmid, pFRLuc, (Stratagene Cloning Systems, La Jolla, Calif., USA) contains five copies of the GAL4 response element and a synthetic minimal promoter.
(§2) Under standard assay conditions, Compound 1 was tested at 8 doses from 0.01-33 μM and the final DMSO concentration was 0.33% in both control and treatment wells. When necessary, Compound 1 was tested at lower concentrations. After a 48-hour post-treatment and transfection incubation, the cells were assayed for luciferase activity using the Bright-GloTM Luciferase Assay System (Promega Corporation, Madison, Wis., USA) following the manufacturer's instructions. […]

In series [11] the target is C. fumiferana EcR with a E274V/V390I/Y410E mutation (VY-CfEcR-DEF) (Choristoneura fumiferana, UniProt O77240). Description: Cellular gene-switch assay, VY-Cf EcR, luciferase reporter. Type of series: cell-based. The note with it: NIH3T3 cells. As for the experimental part: as §1, §2
On the technique in general: In a reporter assay the amount or activity of a reporter protein is the signal.

Setting [12] is: 48-hour incubation, luciferase activity.
The mark [13] stands for this setting: maximum fold induction relative to a positive control.

The record followed here is patent US8946294B2, “Crystalline diacylhydrazine and the use thereof” (Intrexon Corporation, priority 2011, dated 2015).

SMILES strings stand for the structures. pEC50: −log10 of the molar value.

Consider `CCC[C@@H](N(NC(=O)c1cccc(OC)c1CC)C(=O)c1cc(C)cc(C)c1)C(C)(C)C` [Compound 1 Form IX, (R)-3,5-dimethyl-benzoic acid N-(1-tert-butyl-butyl)-N′-(2-ethyl-3-methoxy-benzoyl)-hydrazide], for which the “Form on reinvestigation of the sample” value in series [1] is on record as “spontaneously transformed into Form II”.
For the compound `CCC[C@@H](N(NC(=O)c1cccc(OC)c1CC)C(=O)c1cc(C)cc(C)c1)C(C)(C)C` [Compound 1 Form II, (R)-3,5-dimethyl-benzoic acid N-(1-tert-butyl-butyl)-N′-(2-ethyl-3-methoxy-benzoyl)-hydrazide], in [2], the “Hygroscopicity (DVS)” value is on record as “non- to slightly-hygroscopic” and the water content gained stood at 0.1 wt.-%. Besides, in [3], the “Change in crystalline form after mechanical treatment (PXRD)” value is given as “no change in crystalline form”. Moreover, in [4], the “hydrate (Form IV) or CO2 adduct formation” value was “no indication of hydrate (Form IV) or CO2 adduct formation” and the Form after storage entry is reported as “unchanged Form II”.
As for `CCC[C@@H](N(NC(=O)c1cccc(OC)c1CC)C(=O)c1cc(C)cc(C)c1)C(C)(C)C` [Compound 1 Forms II, III, IV, and V, (R)-3,5-dimethyl-benzoic acid N-(1-tert-butyl-butyl)-N′-(2-ethyl-3-methoxy-benzoyl)-hydrazide], the Form entry in series [5] (45° C.) was “IV and V”; in [5] (55° C.), “IV and V”.
As for `CCC[C@@H](N(NC(=O)c1cccc(OC)c1CC)C(=O)c1cc(C)cc(C)c1)C(C)(C)C` [Compound 1 Form IV, (R)-3,5-dimethyl-benzoic acid N-(1-tert-butyl-butyl)-N′-(2-ethyl-3-methoxy-benzoyl)-hydrazide], the Form after storage result in [6] (3 days) was “II, III, and IV”; in series [6] (10 days) it was “II and III”; in series [6] (18 days), “II and III”. Also, the “Relative stability of polymorphic forms” value in series [5] (methanol content of less than 60% volume) is “most stable polymorphic form”.
Consider `CCC[C@@H](N(NC(=O)c1cccc(OC)c1CC)C(=O)c1cc(C)cc(C)c1)C(C)(C)C` [Compound 1 Forms II and III, (R)-3,5-dimethyl-benzoic acid N-(1-tert-butyl-butyl)-N′-(2-ethyl-3-methoxy-benzoyl)-hydrazide], for which the “solution mediated transition temperature” value in [7] was 45-47 °C. For the same compound, the Form obtained entry in [8] (45° C.) is “mixture of Form III and Form IV”; in series [8] (50° C.) it was “mixture of Form II and Form III”; in series [8] (55° C.), “Form II”; in [8] (60° C.), “Form II”.
Take `CCC[C@@H](N(NC(=O)c1cccc(OC)c1CC)C(=O)c1cc(C)cc(C)c1)C(C)(C)C` [Compound 1 Form III, (R)-3,5-dimethyl-benzoic acid N-(1-tert-butyl-butyl)-N′-(2-ethyl-3-methoxy-benzoyl)-hydrazide]: in [2], the “Hygroscopicity (DVS)” value is given as “non- to slightly-hygroscopic” and the water content gained stood at 0.1 wt.-%. Further, the “Relative stability of forms” value in series [9] was “more stable than Form II”. Besides, in series [3], the “Change in crystalline form after mechanical treatment (PXRD)” value is given as “no change in crystalline form”. In addition, in [4], the “hydrate (Form IV) or CO2 adduct formation” value was “no indication of hydrate (Form IV) or CO2 adduct formation” and the Form after storage result is “unchanged Form III”.
Usually pEC50 stands for the EC50 on a negative log10 scale, so that one unit is a factor of ten. A high value points to a small EC50. As for `CCC[C@@H](N(NC(=O)c1cccc(OC)c1CC)C(=O)c1cc(C)cc(C)c1)C(C)(C)C` [Compound 1, (R)-3,5-dimethyl-benzoic acid N-(1-tert-butyl-butyl)-N′-(2-ethyl-3-methoxy-benzoyl)-hydrazide], the pEC50 was 8.74 in series [10] (setting [12]) and 9.88 in series [11] (setting [12]). The “Rel Max FI” value came to 0.99 in series [10] (setting [13]) and 0.88 in series [11] (setting [13]).
For the compound `CCC[C@@H](N(NC(=O)c1cccc(OC)c1CC)C(=O)c1cc(C)cc(C)c1)C(C)(C)C` [Compound 1 Form V, (R)-3,5-dimethyl-benzoic acid N-(1-tert-butyl-butyl)-N′-(2-ethyl-3-methoxy-benzoyl)-hydrazide], in series [5] (methanol content of more than 60% volume), the “Relative stability of polymorphic forms” value was “most stable polymorphic form”.
